The text below walks through data of PMC4890535, “On the Kinetic and Allosteric Regulatory Properties of the ADP-Glucose Pyrophosphorylase from Rhodococcus jostii: An Approach to Evaluate Glycogen Metabolism in Oleaginous Bacteria” (Frontiers in Microbiology, 2016).

The target in series [1] is T1, R. jostii ADP-Glc PPase (RjoGlgC) (Rhodococcus jostii, UniProt Q0S3Y4).
T1 construct: gene glgC; full length, N-terminal His-tag (pET28c), E. coli BL21(DE3) with GroEL/GroES; start GTG changed to ATG, primer encodes MRSQPHV; homotetramer 190 kDa
T1 sequence (Q0S3Y4 1-404): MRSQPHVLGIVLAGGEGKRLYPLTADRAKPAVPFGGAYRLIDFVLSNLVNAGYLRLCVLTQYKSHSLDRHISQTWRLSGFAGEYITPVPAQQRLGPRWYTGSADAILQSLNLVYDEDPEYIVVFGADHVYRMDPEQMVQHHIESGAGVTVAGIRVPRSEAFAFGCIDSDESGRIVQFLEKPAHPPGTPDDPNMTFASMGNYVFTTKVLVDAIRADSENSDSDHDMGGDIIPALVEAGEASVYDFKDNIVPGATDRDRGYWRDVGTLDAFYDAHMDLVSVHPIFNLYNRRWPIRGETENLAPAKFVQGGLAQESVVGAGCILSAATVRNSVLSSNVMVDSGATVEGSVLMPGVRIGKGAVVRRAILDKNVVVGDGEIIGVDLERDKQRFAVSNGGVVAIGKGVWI
Description: colorimetric Pi release (Malachite Green) assay of ADP-Glc synthesis, Hill fit. The class given is biochemical. The text has this: colorimetric Pi release (Malachite Green) assay of ADP-Glc synthesis, Hill fit on R. jostii ADP-Glc PPase (RjoGlgC)

The target of series [2] is T1, R. jostii ADP-Glc PPase (RjoGlgC). The series is described as above. The class given is biochemical. As to conditions: no activator; co-substrate ATP; 5 mM MgCl2, pH 8.0, 37°C; read-out: S0.5.
Substrate in series [3]: Nc1ncnc2c1ncn2[C@@H]1O[C@H](COP(=O)(O)OP(=O)(O)OP(=O)(O)O)[C@@H](O)[C@H]1O
The series is described as above. The note with it: no activator, co-substrate Glc-1P saturating, 5 mM MgCl2, pH 8.0, 37°C. It is filed as biochemical, Rhodococcus jostii.

Substrate in series [4]: O=P(O)(O)O[C@H]1O[C@H](CO)[C@@H](O)[C@H](O)[C@H]1O
The series is described as above. The class given is biochemical, Rhodococcus jostii. The note with it: no activator, co-substrate ATP saturating, 5 mM MgCl2, pH 8.0, 37°C.

Series [5] deals with the molecule itself. Briefly: SEC; Superdex 200 size exclusion chromatography of the purified enzyme; data not shown.
[6] abbreviates: allosteric activator; 5 mM MgCl2, ATP and Glc-1P, pH 8.0, 37°C; read-out: A0.5.

Read-outs that look alike come from different tables or passages of the source.

Take `O=P(O)(O)OC[C@H]1OC(O)[C@H](O)[C@@H](O)[C@@H]1O` (stereo partly drawn) [Glc-6P]: the EC50 in series [1] (read-out: A0.5; allosteric activator; 5 mM MgCl2, ATP and Glc-1P, pH 8.0, 37°C) worked out at 88 ± 5 µM. In the case of `O=P(O)(O)OC[C@H]1OC(O)[C@H](O)[C@@H]1O` (stereo partly drawn) [Rib-5P], in series [1] (setting [6]), the EC50 was determined as 4000 ± 500 µM. In the case of `N[C@H]1[C@@H](OP(=O)(O)O)O[C@H](CO)[C@@H](O)[C@@H]1O` [GlcN-1P], in series [2], the Km was more than 6 mM. For the molecule `O=P(O)(O)OC[C@H]1OC(O)[C@@H](O)[C@@H](O)[C@@H]1O` (stereo partly drawn) [Man-6P], in series [1] (setting [6]), the EC50 was 56 ± 5 µM. Turning to `O=P(O)(O)OC[C@H]1OC(O)(CO)[C@@H](O)[C@@H]1O` (stereo partly drawn) [Fru-6P], in series [1] (setting [6]), the EC50 worked out at 2200 ± 100 µM. For the molecule `C=C(OP(=O)(O)O)C(=O)O` [PEP], the EC50 in series [1] (read-out: A0.5) is 300 ± 200 µM.

B1: ADP-glucose pyrophosphorylase from Rhodococcus jostii RHA1 (enzyme, UniProt Q0S3Y4 1-404, looked up)
chain: T1 sequence (Q0S3Y4 1-404)
notes: ADP-glucose pyrophosphorylase (EC 2.7.7.27), product of glgC of Rhodococcus jostii RHA1; gene of 1,215 bp, theoretical molecular mass 43.85 kDa; amplified with primers from the initiation codon (changed from GTG to ATG) to downstream of the stop codon; Homotetramer by size exclusion chromatography; also called R. jostii ADP-Glc PPase; ADP-Glc PPase; source: E. coli BL21 (DE3) harboring pGro7 …
A word on the stoichiometry N: it is the number of molecules, sites or subunits per partner or assembly. Regarding B1, the results for the K0.5 in series [3] and in series [4] were 1.2 ± 0.1 mM and 1.8 ± 0.2 mM, respectively. In addition, the “stoichiometry N” value in series [5] came to 4.
